Test results: patent publication US20040005537A1, “Method of identifying toxic agents using differential gene expression” (priority 2000, published 2004)

Legend:
rat heart tissue = experiment: GENECALLING differential gene expression analysis after dosing of serotonin modulating agents; assay type: in vivo, Sprague Dawley rats
Procedure: Control animals received sterile water or canola oil. The animals were sacrificed 24 hours following the last dose. Liver tissue was dissected from the animals, and total RNA was recovered from the dissected tissue. cDNA was prepared and the resulting samples were processed through using GENECALLING™ differential expression analysis as described in U.S. Pat. No. 5,871,697 and in Shimkets et al., Nature Biotechnology 17:798-803 (1999). The contents of these patents and publications are incorporated herein by reference in their entirety.
Thousands of gene fragments were initially found to be differentially expressed in rat heart tissue in response to serotonin modulating agents in. Genes fragments whose expression levels were modulated greater than ±1.5-fold were selected for further analysis.
Column 6 of Table 1, entitled “Function”, lists the type of classification assigned for the protein, based on its function. The 210 single nucleic acid sequences identified herein, are referred to herein as CARDIOTOX 1-210.

[1] = cited from earlier work

CCNC(C)Cc1cccc(C(F)(F)F)c1 (centres unmarked) [fenfluramine]
Effects on Transcription Level: Novel gene fragment, 445 bp, 85% SI to human skeletal muscle alpha 2 actinin [M86406] (rat heart tissue; CARDIOTOX 72): −2.0 fold | Effects on Transcription Level: Novel gene fragment, 246 bp, 89% SI to mouse ponsin-1 [AF078667] (rat heart tissue; CARDIOTOX 73): −2.8 fold | Effects on Transcription Level: Novel gene fragment, 126 bp, 77% SI to human DNA sequence from cosmid V311G7, between markers DXS366 and DXS87 on chromosome X [Z69304] (rat heart tissue; CARDIOTOX 74): +1.9 fold | Effects on Transcription Level: Novel gene fragment, 370 bp (rat heart tissue; CARDIOTOX 75): −3.0 fold | Effects on Transcription Level: Novel gene fragment, 337 bp, 78% SI to novel human protein AHNAK [M80899] (rat heart tissue; CARDIOTOX 76): −3.6 fold | Effects on Transcription Level: Novel gene fragment, 100 bp, 93% SI to human KIAA0750 protein [ABO18293] (rat heart tissue; CARDIOTOX 77): −9.0 fold | Effects on Transcription Level: Novel gene fragment, 44 bp (rat heart tissue; CARDIOTOX 78): −6.7 fold | Effects on Transcription Level: Novel gene fragment, 698 bp, 93% SI to mouse plenty-of-prolines-101 [AF062655] (rat heart tissue; CARDIOTOX 79): −2.5 fold | Effects on Transcription Level: Novel gene fragment, 660 bp, 84% SI to mouse membrane protein TMS-2 [AF181685] (rat heart tissue; CARDIOTOX 80): −3.7 fold | Effects on Transcription Level: Novel gene fragment, 115 bp (rat heart tissue; CARDIOTOX 81): −6.3 fold | Effects on Transcription Level: Novel gene fragment, 294 bp, 95% SI to mouse Ndr1 related protein Ndr2 [AB033921] (rat heart tissue; CARDIOTOX 82): −2.0 fold | Effects on Transcription Level: Novel gene fragment, 198 bp (rat heart tissue; CARDIOTOX 83): +2.7 fold | Effects on Transcription Level: Novel gene fragment, 730 bp, 86% SI to mouse E800 [Y10968] (rat heart tissue; CARDIOTOX 84): −2.4 fold | Effects on Transcription Level: Novel gene fragment, 294 bp, 98% SI to cysteine conjugate beta-lyase [S61960] (rat heart tissue; CARDIOTOX 85): −2.4 fold | Effects on Transcription Level: Aconitase (rat heart tissue; CARDIOTOX 86, GenBank A1243266): −3.4 fold | Effects on Transcription Level: Ribosomal protein L7 (rat heart tissue; CARDIOTOX 87, GenBank M17422): +2.5 fold | Effects on Transcription Level: Ribosomal protein L9 (rat heart tissue; CARDIOTOX 88, GenBank X51706): +11.0 fold | Effects on Transcription Level: Ribosomal protein L12 (rat heart tissue; CARDIOTOX 89, GenBank X53504): −1.5 fold | Effects on Transcription Level: 18S, 5.8S, and 28S ribosomal RNA's (rat heart tissue; CARDIOTOX 90, GenBank V01270): +6 fold | Effects on Transcription Level: Pyruvate dehydrogenase kinase 2 (PDK2) (rat heart tissue; CARDIOTOX 91, GenBank U10357): −7.7 fold | Effects on Transcription Level: D-Binding Protein (DBP) (rat heart tissue; CARDIOTOX 92, GenBank J03179): −1.9 fold | Effects on Transcription Level: Lipoprotein lipase (rat heart tissue; CARDIOTOX 93, GenBank L03294): −2.3 fold | Effects on Transcription Level: Non-neuronal enolase (rat heart tissue; CARDIOTOX 94, GenBank X02610): +3.5 fold | Effects on Transcription Level: Glycogen phosphorylase (muscle isozyme) (rat heart tissue; CARDIOTOX 95, GenBank L10669): −2.3 fold | Effects on Transcription Level: Cytochrome c oxidase subunit IV (rat heart tissue; CARDIOTOX 96, GenBank X14209): +10.0 fold | Effects on Transcription Level: Alpha-globin (rat heart tissue; CARDIOTOX 97, GenBank M17083): +3.4 fold | Effects on Transcription Level: Beta-globin (rat heart tissue; CARDIOTOX 98, GenBank X06701): +3.6 fold | Effects on Transcription Level: Myoglobin (rat heart tissue; CARDIOTOX 99, GenBank AF197916): +4.0 fold | Effects on Transcription Level: Titin (rat heart tissue; CARDIOTOX 100, GenBank L38717): −1.6 fold | Effects on Transcription Level: Skeletal muscle actin (rat heart tissue; CARDIOTOX 101, GenBank V01218): −14.9 fold | Effects on Transcription Level: Myosin light chain 2 (MLC2) (rat heart tissue; CARDIOTOX 102, GenBank M11851): +2.4 fold | Effects on Transcription Level: Alpha cardiac myosin heavy chain (rat heart tissue; CARDIOTOX 103, GenBank X15938): −7.5 fold | Effects on Transcription Level: Troponin I (rat heart tissue; CARDIOTOX 104, GenBank U77354): +1.8 fold | Effects on Transcription Level: Cardiac calsequestrin (rat heart tissue; CARDIOTOX 105, GenBank AF001334): −2.4 fold | Effects on Transcription Level: Sulfated glycoprotein 2 (rat heart tissue; CARDIOTOX 106, GenBank M16975): −1.8 fold | Effects on Transcription Level: Aquaporin 7 (rat heart tissue; CARDIOTOX 107, GenBank AB000507): +1.5 fold | Effects on Transcription Level: Carnitine/acylcarnitine carrier protein (rat heart tissue; CARDIOTOX 108, GenBank X97831): −2.6 fold | Effects on Transcription Level: Glu-Pro Dipeptide Repeat (rat heart tissue; CARDIOTOX 109, GenBank U40628): −5.6 fold | Effects on Transcription Level: Cystatin beta (rat heart tissue; CARDIOTOX 110, GenBank X54737): +2.7 fold | Effects on Transcription Level: Novel gene fragment, 593 bp, 90% SI to human calcineurin B-like protein [Z08983] (rat heart tissue; CARDIOTOX 111): +2.1 fold | Effects on Transcription Level: Novel gene fragment, 179 bp, 88% SI to human titin [X90568] (rat heart tissue; CARDIOTOX 112): −3.0 fold | Effects on Transcription Level: Novel gene fragment, 700 bp, 91% SI to mouse periplakin (PPL) [AF116523] (rat heart tissue; CARDIOTOX 113): +2.0 fold | Effects on Transcription Level: Long chain acyl-CoA dehydrogenase (LCAD) (rat heart tissue; CARDIOTOX 114, GenBank J05029): +1.8 fold | Effects on Transcription Level: Sulfated glycoprotein 1 (SGP-1) (rat heart tissue; CARDIOTOX 115, GenBank M19936): −2.0 fold | Effects on Transcription Level: Catalase (rat heart tissue; CARDIOTOX 116, GenBank M11670): +2.1 fold | Effects on Transcription Level: Alpha-fodrin (A2A) (Nonerythroid spectrin alpha subunit) (rat heart tissue; CARDIOTOX 117, GenBank AF084186): −1.8 fold | Effects on Transcription Level: Cardiac specific sodium channel alpha-subunit (rat heart tissue; CARDIOTOX 118, GenBank M27902): −2.1 fold | Effects on Transcription Level: Glu-Pro Dipeptide Repeat (rat heart tissue; CARDIOTOX 119, GenBank U40628): +4.2 fold | Effects on Transcription Level: Novel gene fragment, 200 bp, 64% SI to human KIAA0733 protein [AB018316] (rat heart tissue; CARDIOTOX 120): −1.7 fold | Effects on Transcription Level: RNA polymerase II transcription factor SIII (p18 subunit) (rat heart tissue; CARDIOTOX 121, GenBank L42855): +1.7 fold | Effects on Transcription Level: Protein-tyrosine phosphalase (LRP) (rat heart tissue; CARDIOTOX 122, GenBank L01702): +2.0 fold | Effects on Transcription Level: Skeletal muscle selenoprotein W (SelW) (rat heart tissue; CARDIOTOX 123, GenBank U25264): −1.8 fold | Effects on Transcription Level: Sarcoplasmic reticulum 2+-Ca-ATPase (rat heart tissue; CARDIOTOX 124, GenBank X15635): −1.6 fold | Effects on Transcription Level: Ribosomal protein S7 (rat heart tissue; CARDIOTOX 125, GenBank X53377): +1.0 fold | Effects on Transcription Level: Ribophorin I (rat heart tissue; CARDIOTOX 126, GenBank X05300): +1.6 fold | Effects on Transcription Level: Beta cardiac myosin heavy chain (rat heart tissue; CARDIOTOX 127, GenBank X15939): +2.3 fold | Effects on Transcription Level: ADP-ribosylation factor 1 (rat heart tissue; CARDIOTOX 128, GenBank L12380): +1.2 fold | Effects on Transcription Level: Laminin receptor (rat heart tissue; CARDIOTOX 129, GenBank U04942): +2.6 fold | Effects on Transcription Level: Novel gene fragment, 206 bp, 89% SI to human seryl-tRNA synthetase [X91257] (rat heart tissue; CARDIOTOX 130): +1.8 fold | Effects on Transcription Level: Annexin VI (rat heart tissue; CARDIOTOX 131, GenBank X86086): −1.8 fold | Effects on Transcription Level: Novel gene fragment, 325 bp, 90% SI to mouse N-RAP [U76618] (rat heart tissue; CARDIOTOX 132): +1.7 fold | Effects on Transcription Level: Novel gene fragment, 61 bp (CARDIOTOX 134) (rat heart tissue; LD10 dose for three days): −2.4 fold | Effects on Transcription Level: Novel gene fragment, 337 bp (CARDIOTOX 133) (rat heart tissue; LD10 dose for three days): −2.4 fold | Effects on Transcription Level: Novel gene fragment, 378 bp, 88% SI to human coatomer protein (COPA) [U24105] (CARDIOTOX 138) (rat heart tissue; LD10 dose for three days): −1.6 fold | Effects on Transcription Level: Long chain 3-ketoacyl-CoA thiolase (CARDIOTOX 136) (rat heart tissue; LD10 dose for three days, GenBank D16479): −1.1 fold | Effects on Transcription Level: TATA-binding protein interacting protein 120 (TIP120) (CARDIOTOX 135) (rat heart tissue; LD10 dose for three days, GenBank D87671): +1.9 fold | Effects on Transcription Level: Serine protease (CARDIOTOX 139) (rat heart tissue; LD10 dose for three days, GenBank D88250): +4.0 fold | Effects on Transcription Level: Thymosin beta-4 (CARDIOTOX 137) (rat heart tissue; LD10 dose for three days, GenBank M34043): +1.6 fold | Effects on Transcription Level: Annexin VI (no CARDIOTOX assignment given) (rat heart tissue; LD10 dose for three days, GenBank X86086): −1.7 fold | classification as cardiotoxic or noncardiotoxic serotonin modulating agent ([1]; grouping used to generate the distinguishing gene profiles): cardiotoxic | side effect reported in a subset of patients ([1]; patients to which they are administered): valvular heart disease
